# Patent publication US20090275085A1, “Enzyme for Obtaining Prebiotic Oligosaccharides” (CONSEJO SUPERIOR DE INVESTIGACIONES CIENTIFICAS, priority 2004, published 2009)
# What was measured:
# [1] = system: X. dendrorhous α-glucosidase, enzyme purified to homogeneity (F-3); test: α-glucosidase (hydrolytic) activity of the X. dendrorhous F-3 fraction on different substrates; assay type: biochemical, Xanthophyllomyces dendrorhous; settings: for Specific activity: F-3 fraction, purified protein, 1% concentration of substrate; for hydrolytic activity observed on substrate: enzyme purified to homogeneity (F-3)
# Method: (§1) The cell-free fraction was obtained by centrifugation (F-0) and α-glucosidase activity in this fraction was tested, assessing the release of glucose on different substrates. A […] test and standard methodology were used. The released glucose was quantified using the glucose oxidase-peroxidase coupled reaction: 0.4 ml of the solution to be assessed was mixed with 0.1 ml of A:B solution (20:1) (A: 0.85 U/ml glucose oxidase, 0.40 U/ml peroxidase in sodium phosphate buffer pH 5; B: 0.6% O-dianisidine). It was incubated for 30 minutes at 37° C. and spectrophotometrically quantified at 450 nm. A standard glucose curve (1 to 100 μg/ml) was used. The α-glucosidase activity unit is defined as the amount of enzyme required to release 20 μg/ml of glucose under the described conditions.
# The hydrolytic activity of the enzyme purified to homogeneity (F-3) following the described process was tested on different substrates.
# [2] = system: X. dendrorhous extracellular fraction α-glucosidase; test: α-glucosidase activity of the X. dendrorhous extracellular (cell-free, F-0) fraction on different glucose polymers, glucose release by glucose oxidase-peroxidase; assay type: biochemical, Xanthophyllomyces dendrorhous; settings: for Specific activity: X. dendrorhous extracellular fraction (F-0), release of glucose; for α-glucosidase activity detected on substrate: cell-free fraction (F-0)
# Method: The production of α-glucosidase activity was analyzed in X. dendrorhous cultures grown in minimal medium for yeasts: 0.7% YNB (Yeast Nitrogen Base w/o Amino acids, DIFCO) (w/v), 2% carbon source. The cultures were carried out in glass flasks incubated at 24° C. and with constant stirring at 160 rpm.
# as §1
# [3] = molecular target: X. dendrorhous α-glucosidase (purified enzyme) (Phaffia rhodozyma, UniProt A0A0U2M4R6); test: Kinetic constants of X. dendrorhous α-glucosidase glycosylhydrolase activity; assay type: biochemical, Xanthophyllomyces dendrorhous; settings: 30 minutes, 100 ng of enzyme; starch supplied by Avebe, 8100 Da
# Method: The tests were carried out in 30 minutes and with 100 ng of enzyme for each reaction. The molecular weight of the starch, supplied by Avebe, is 8100 Da.
# [4] = system: purified X. dendrorhous enzyme (F-3); test: Glycosyltransferase activity: incubating maltose (240 g/l) with the purified X. dendrorhous enzyme (F-3), HPLC analysis; assay type: biochemical, Xanthophyllomyces dendrorhous; settings: for composition of the system: after 288 hours, maltose 240 g/l, 0.7 μg α-glucosidase, pH 5.4, 40° C., 200 rpm; for Composition of the reaction mixture: 240 g maltose/l, 0.2 M sodium acetate pH 5.4, 40° C., 150 rpm
# Method: 0.7 μg of α-glucosidase from the pure solution of α-glucosidase corresponding to fraction 3 of TABLE 2 were added. […] Aliquots were extracted at different times and incubated for 5 minutes at 80° C. to inactivate the enzyme. They were diluted to 1:4 (v/v) with water, centrifuged for 5 minutes at 6000 rpm in an Eppendorf tube with a 0.45 μam filter and analyzed by HPLC liquid chromatography.
# X. dendrorhous MYA-131 = test: Degradation of starch in the medium of an X. dendrorhous culture, quantified with Lugol's iodine; assay type: cell-based, Xanthophyllomyces dendrorhous
# Method: X. dendrorhous MYA-131 grown in 100 ml of minimal medium with starch (MMS): 0.7% YNB (Yeast Nitrogen Base w/o Amino acids, DiFCO) (w/v), 2% starch (w/v), DIFCO) was cultured to produce α-glucosidase, and the culture continued for 150 hours. Cell growth was carried out and assessed as in the previous example. The stationary phase was reached after 75 hours of growth, at 3.4 ODU660. The cell-free fraction was obtained every 5-7 hours as in EXAMPLE 1.
# To that end, 0.05 ml of the cell-free fraction was mixed with 0.05 ml of 50 mM sodium phosphate buffer, pH 5.5 0.1 ml of Lugol's iodine and 2.5 ml of water were added to 0.025 ml of this mixture. The polysaccharide was spectrophotometrically quantified at 595 nm using a standard starch curve (1-10 mg/ml). The 100% starch value was that assessed in the initial culture medium which was used to carry out the inoculum. By using this methodology, a decrease of the starch in the extracellular medium for the first 30 hours of culture was not observed. 10, 20, 40 and 60% reductions of the polysaccharide concentration were obtained at 50, 60, 70 and 80 hours of culture, respectively. The last value, 60%, remained constant during prolonged growths of up to 300 hours.
# X. dendrorhous α-glucosidase (purified enzyme), sequence (A0A0U2M4R6 entry or part of it): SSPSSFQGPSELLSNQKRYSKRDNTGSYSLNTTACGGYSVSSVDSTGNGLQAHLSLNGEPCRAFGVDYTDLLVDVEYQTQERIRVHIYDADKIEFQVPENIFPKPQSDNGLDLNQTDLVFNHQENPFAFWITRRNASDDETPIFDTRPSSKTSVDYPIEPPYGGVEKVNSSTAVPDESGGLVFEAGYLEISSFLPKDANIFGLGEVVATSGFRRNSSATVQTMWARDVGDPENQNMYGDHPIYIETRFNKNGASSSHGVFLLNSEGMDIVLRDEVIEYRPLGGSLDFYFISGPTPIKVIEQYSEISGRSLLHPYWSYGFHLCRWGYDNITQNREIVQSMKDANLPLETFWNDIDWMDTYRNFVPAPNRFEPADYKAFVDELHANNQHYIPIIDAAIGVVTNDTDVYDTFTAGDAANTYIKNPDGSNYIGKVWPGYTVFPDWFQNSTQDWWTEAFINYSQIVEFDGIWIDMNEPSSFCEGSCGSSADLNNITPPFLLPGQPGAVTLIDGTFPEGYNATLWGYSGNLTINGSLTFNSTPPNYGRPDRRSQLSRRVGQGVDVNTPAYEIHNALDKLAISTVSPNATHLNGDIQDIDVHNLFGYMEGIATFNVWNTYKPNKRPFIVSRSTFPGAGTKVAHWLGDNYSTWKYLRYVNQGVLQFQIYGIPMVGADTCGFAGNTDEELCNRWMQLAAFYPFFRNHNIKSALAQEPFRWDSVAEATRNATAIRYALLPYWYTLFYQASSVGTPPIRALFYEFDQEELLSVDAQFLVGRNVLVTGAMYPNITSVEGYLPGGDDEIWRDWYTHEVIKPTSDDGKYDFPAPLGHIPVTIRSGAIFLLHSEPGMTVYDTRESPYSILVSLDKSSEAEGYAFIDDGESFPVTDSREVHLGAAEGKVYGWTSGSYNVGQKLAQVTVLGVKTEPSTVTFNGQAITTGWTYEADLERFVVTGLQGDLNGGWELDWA
compound,measurement,setting,value
maltodextrin,Specific activity,[1],747 U/μg
same,Specific activity,[2],21 U/μg
OC[C@H]1O[C@H](O[C@H]2[C@H](O)[C@@H](O)[C@@H](O[C@H]3[C@H](O)[C@@H](O)[C@@H](O[C@H]4[C@H](O)[C@@H](O)[C@@H](O[C@H]5[C@H](O)[C@@H](O)[C@@H](O[C@H]6[C@H](O)[C@@H](O)[C@@H](O[C@H]7[C@H](O)[C@@H](O)C(O)O[C@@H]7CO)O[C@@H]6CO)O[C@@H]5CO)O[C@@H]4CO)O[C@@H]3CO)O[C@@H]2CO)[C@H](O)[C@@H](O)[C@@H]1O (stereo partly shown) [maltoheptose],Specific activity,[1],997 U/μg
same,Vmax,[3],15 μg glucose min^−1
same,Specific activity,[2],24 U/μg
glycogen,Specific activity,[1],197 U/μg
OC[C@H]1O[C@H](OC[C@H]2OC(O)[C@H](O)[C@@H](O)[C@@H]2O)[C@H](O)[C@@H](O)[C@@H]1O (stereo partly shown) [isomaltose],composition of the system,[4],14.4 g/L
same,Composition of the reaction mixture,[4]; reaction time 27 h,0 grams/liter
same,Composition of the reaction mixture,[4]; reaction time 117 h,12.7 grams/liter
same,Composition of the reaction mixture,[4]; reaction time 143 h,12.4 grams/liter
same,Composition of the reaction mixture,[4]; reaction time 216 h,13.1 grams/liter
same,Composition of the reaction mixture,[4]; reaction time 288 h,14.4 grams/liter
same,hydrolytic activity observed on substrate,[1],No activity
same,α-glucosidase activity detected on substrate,[2],not detected
pullulan,hydrolytic activity observed on substrate,[1],No activity
maltose,composition of the system,[4],69.2 g/L
same,Composition of the reaction mixture,[4]; reaction time 27 h,183.4 grams/liter
same,Composition of the reaction mixture,[4]; reaction time 117 h,103.0 grams/liter
same,Composition of the reaction mixture,[4]; reaction time 143 h,94.4 grams/liter
same,Composition of the reaction mixture,[4]; reaction time 216 h,78.1 grams/liter
same,Composition of the reaction mixture,[4]; reaction time 288 h,69.2 grams/liter
same,Specific activity,[1],1172 U/μg
same,Vmax,[3],23 μg glucose min^−1
same,Specific activity,[2],30 U/μg
OC[C@H]1O[C@H](OC[C@H]2O[C@H](O[C@H]3[C@H](O)[C@@H](O)C(O)O[C@@H]3CO)[C@H](O)[C@@H](O)[C@@H]2O)[C@H](O)[C@@H](O)[C@@H]1O (stereo partly shown) [panose],composition of the system,[4],21.2 g/L
same,Composition of the reaction mixture,[4]; reaction time 27 h,5.7 grams/liter
same,Composition of the reaction mixture,[4]; reaction time 117 h,14.7 grams/liter
same,Composition of the reaction mixture,[4]; reaction time 143 h,16.1 grams/liter
same,Composition of the reaction mixture,[4]; reaction time 216 h,18.9 grams/liter
same,Composition of the reaction mixture,[4]; reaction time 288 h,21.2 grams/liter
dextran,hydrolytic activity observed on substrate,[1],No activity
same,α-glucosidase activity detected on substrate,[2],not detected
starch,reduction of the polysaccharide concentration,X. dendrorhous MYA-131; 50 hours of culture,10%
same,reduction of the polysaccharide concentration,X. dendrorhous MYA-131; 60 hours of culture,20%
same,reduction of the polysaccharide concentration,X. dendrorhous MYA-131; 70 hours of culture,40%
same,reduction of the polysaccharide concentration,"X. dendrorhous MYA-131; 80 hours of culture, remained constant up to 300 hours",60%
same,decrease of the starch in the extracellular medium,X. dendrorhous MYA-131; first 30 hours of culture,not observed
same,Kcat,[3],1.43 s⁻¹
same,Km,[3],880 µM
same,Vmax,[3],4.29 μg glucose min^−1
same,Specific activity,[2],23 U/μg
OC[C@H]1O[C@H](O[C@H]2[C@H](O)[C@@H](O)[C@@H](O[C@H]3[C@H](O)[C@@H](O)[C@@H](O[C@H]4[C@H](O)[C@@H](O)C(O)O[C@@H]4CO)O[C@@H]3CO)O[C@@H]2CO)[C@H](O)[C@@H](O)[C@@H]1O (stereo partly shown) [maltotetraose],composition of the system,[4],15.4 g/L
same,Composition of the reaction mixture,[4]; reaction time 27 h,0 grams/liter
same,Composition of the reaction mixture,[4]; reaction time 117 h,11.0 grams/liter
same,Composition of the reaction mixture,[4]; reaction time 143 h,12.4 grams/liter
same,Composition of the reaction mixture,[4]; reaction time 216 h,15.1 grams/liter
same,Composition of the reaction mixture,[4]; reaction time 288 h,15.4 grams/liter
OC[C@H]1O[C@H](O[C@H]2[C@H](O)[C@@H](O)[C@@H](O[C@H]3[C@H](O)[C@@H](O)C(O)O[C@@H]3CO)O[C@@H]2CO)[C@H](O)[C@@H](O)[C@@H]1O (stereo partly shown) [maltotriose],composition of the system,[4],35.9 g/L
same,Composition of the reaction mixture,[4]; reaction time 27 h,26.3 grams/liter
same,Composition of the reaction mixture,[4]; reaction time 117 h,42.6 grams/liter
same,Composition of the reaction mixture,[4]; reaction time 143 h,42.8 grams/liter
same,Composition of the reaction mixture,[4]; reaction time 216 h,39.3 grams/liter
same,Composition of the reaction mixture,[4]; reaction time 288 h,35.9 grams/liter
same,Specific activity,[1],647 U/μg
same,Vmax,[3],12 μg glucose min^−1
same,Specific activity,[2],18 U/μg
OC[C@H]1O[C@H](OC[C@H]2O[C@H](OC[C@H]3OC(O)[C@H](O)[C@@H](O)[C@@H]3O)[C@H](O)[C@@H](O)[C@@H]2O)[C@H](O)[C@@H](O)[C@@H]1O (stereo partly shown) [isomaltotriose],hydrolytic activity observed on substrate,[1],No activity
same,α-glucosidase activity detected on substrate,[2],not detected
"OC[C@H]1O[C@H](OC[C@H]2O[C@H](O[C@H]3[C@H](O)[C@@H](O)[C@@H](O[C@H]4[C@H](O)[C@@H](O)[C@@H](O)O[C@@H]4CO)O[C@@H]3CO)[C@H](O)[C@@H](O)[C@@H]2O)[C@H](O)[C@@H](O)[C@@H]1O [compound 7, α-D-Glu-(1→6)-α-D-Glu-(1→4)-α-D-Glu-(1→4)-α-D-Glu]",composition of the system,[4],17.6 g/L
same,Composition of the reaction mixture,[4]; reaction time 27 h,0 grams/liter
same,Composition of the reaction mixture,[4]; reaction time 117 h,8.8 grams/liter
same,Composition of the reaction mixture,[4]; reaction time 143 h,10.1 grams/liter
same,Composition of the reaction mixture,[4]; reaction time 216 h,14.5 grams/liter
same,Composition of the reaction mixture,[4]; reaction time 288 h,17.6 grams/liter
